In ChEMBL document CHEMBL4184141, “Investigating the Antibacterial Activity of Biphenylthiazoles against Methicillin- and Vancomycin-Resistant Staphylococcus aureus (MRSA and VRSA)” (J Med Chem, 2017):
Values after ≈ are worked out from the molar mass of the structure shown.

System: Staphylococcus aureus
Test: Antibacterial activity against methicillin-resistant Staphylococcus aureus 2658 RCMB up to 20 hrs by broth microdilution assay
Format: functional

Structure (SMILES)	MIC
Cc1nc(-c2ccc(-c3ccccc3)cc2)sc1-c1ccnc(N=C(N(C)C)N(C)C)n1	> 25 µg/mL
Cc1nc(-c2ccc(-c3ccccc3)cc2)sc1-c1ccnc(NC(C)C)n1	> 25 µg/mL
Cc1nc(-c2ccc(-c3ccccc3)cc2)sc1-c1ccnc(NC(N)=S)n1	> 25 µg/mL
Cc1nc(-c2ccc(-c3ccccc3)cc2)sc1-c1ccnc(NC(=N)N2CCCCC2)n1	> 25 µg/mL
Cc1nc(-c2ccc(-c3ccccc3)cc2)sc1-c1ccnc(-c2ccccn2)n1	> 25 µg/mL
Cc1nc(-c2ccc(-c3ccccc3)cc2)sc1-c1ccnc(NC2CCCCC2)n1	> 25 µg/mL
CCCNc1nccc(-c2sc(-c3ccc(-c4ccccc4)cc3)nc2C)n1	> 25 µg/mL
CCN(CC)c1nccc(-c2sc(-c3ccc(-c4ccccc4)cc3)nc2C)n1	> 25 µg/mL
Cc1nc(-c2ccc(-c3ccccc3)cc2)sc1-c1ccnc(N2CC(O)C2)n1	3.12 µg/mL (≈ 7.79 µM)
Cc1nc(-c2ccc(-c3ccccc3)cc2)sc1-c1ccnc(N(C)C)n1	> 25 µg/mL
Cc1nc(-c2ccc(-c3ccccc3)cc2)sc1-c1ccnc(-c2ccncc2)n1	> 25 µg/mL
Cc1nc(-c2ccc(-c3ccccc3)cc2)sc1-c1ccnc(N)n1	6.25 µg/mL (≈ 18.1 µM)
Cc1nc(-c2ccc(-c3ccccc3)cc2)sc1-c1ccnc(NC(=N)n2cccn2)n1	> 25 µg/mL
Cc1nc(-c2ccc(-c3ccccc3)cc2)sc1-c1ccnc(NC(=N)N2CCCC2)n1	12.5 µg/mL (≈ 28.4 µM)
Cc1nc(-c2ccc(-c3ccccc3)cc2)sc1-c1ccnc(NC2CCCC2)n1	> 25 µg/mL
Cc1nc(-c2ccc(-c3ccccc3)cc2)sc1-c1ccnc(NN2CCOCC2)n1	3.12 µg/mL (≈ 7.26 µM)

Structure (SMILES)	MIC
Cc1nc(-c2ccc(-c3ccccc3)cc2)sc1-c1ccnc(NC(=N)c2ccccn2)n1	> 25 µg/mL
CCCCNc1nccc(-c2sc(-c3ccc(-c4ccccc4)cc3)nc2C)n1	> 25 µg/mL
Cc1nc(-c2ccc(-c3ccccc3)cc2)sc1-c1ccnc(-c2cccnc2)n1	> 25 µg/mL
Cc1nc(-c2ccc(-c3ccccc3)cc2)sc1-c1ccnc(NC(=N)c2ccncc2)n1	> 25 µg/mL
Cc1nc(-c2ccc(-c3ccccc3)cc2)sc1-c1ccnc(N2CCCCC2)n1	> 25 µg/mL
Cc1nc(-c2ccc(-c3ccccc3)cc2)sc1-c1ccnc(N2CCOCC2)n1	3.12 µg/mL (≈ 7.53 µM)
CCCCc1ccc(-c2nc(C)c(-c3ccnc(N)n3)s2)cc1	3.6 µg/mL (≈ 11.1 µM)
Cc1nc(-c2ccc(-c3ccccc3)cc2)sc1-c1ccnc(N2CCCC2)n1	> 25 µg/mL
CCNc1nccc(-c2sc(-c3ccc(-c4ccccc4)cc3)nc2C)n1	6.25 µg/mL (≈ 16.8 µM)
CNc1nccc(-c2sc(-c3ccc(-c4ccccc4)cc3)nc2C)n1	12.5 µg/mL (≈ 34.9 µM)
Cc1nc(-c2ccc(-c3ccccc3)cc2)sc1-c1ccnc(NC(=N)c2cccnc2)n1	> 25 µg/mL
Cc1nc(-c2ccc(-c3ccccc3)cc2)sc1-c1ccnc(N2CCC2)n1	> 25 µg/mL
Cc1nc(-c2ccc(-c3ccccc3)cc2)sc1-c1ccnc(NN)n1	1.56 µg/mL (≈ 4.34 µM)
Cc1nc(-c2ccc(-c3ccccc3)cc2)sc1-c1ccncn1	> 25 µg/mL
Cc1nc(-c2ccc(-c3ccccc3)cc2)sc1-c1ccnc(NC#N)n1	> 25 µg/mL
